Test: Determination of the solubility
Assay type: physicochemical
Conditions: in water and physiological media
Method: The test substance is suspended in water or dilute hydrochloric acid (pH 4). This suspension is shaken at room temperature for 24 h. After ultracentrifugation at 224 000 g for 30 min, the supernatant is diluted with DMSO and analyzed by HPLC. A two-point calibration plot of the test compound in DMSO is used for quantification.
Agilent 1100 with DAD (G1315A), quat. pump (G1311A), autosampler CTC HTS PAL, degasser (G1322A) and column thermostat (G1316A); column: Zorbax Extend-C18 3.5μ; temperature: 40° C.; mobile phase A: water+5 ml of perchloric acid/liter, mobile phase B: acetonitrile; flow rate: 0.7 ml/min; gradient: 0-0.5 min 98% A, 2% B; ramp 0.5-4.5 min 10% A, 90% B; 4.5-6 min 10% A, 90% B; ramp 6.5-6.7 min 98% A, 2% B; 6.7-7.5 min 98% A, 2% B.

- solubility: limited solubility
SMILES: O=C(NC[C@H]1CN(c2ccc(N3CCOCC3=O)cc2F)C(=O)O1)c1ccc(Cl)s1 [compound (A), 5-Chloro-N-({(5S)-3-[2-fluoro-4-(3-oxomorpholin-4-yl)phenyl]-2-oxo-1,3-oxazolidin-5-yl}methyl)thiophene-2-carboxamide]
